Patent publication US20250084039A1, “4-SUBSTITUTED AMINOISOQUINOLINE DERIVATIVES” (Purdue Research Foundation, priority 2016, published 2025)
Read-outs that look alike come from different tables or passages of the source. Each block holds one compound with its values, some of them ahead of it.

Legend:
MV4-11 [1] = assay: Activity against AML cell line MV4-11 (CellTiter-Blue, 72 h); type: cell-based
In short: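 Suspension cells seeded at 4000 per well, left overnight, then exposed to compound from 10 nM to 100 μM for 72 h. Viability by CellTiter-Blue resazurin fluorescence after 4 h (Ex 560, Em 590); IC50 from concentration-response.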

STAT3 phosphorylation = assay: Western blot in MV4-11; type: cell-based, human
Procedure: (§1) Effect of HSW630-1 on protein expression was tested in the MV4-11 leukemia cell line. Total protein extracts were prepared using RIPA buffer (SIGMA) supplemented with Complete Mini™ protease inhibitor and PHOStop™ phosphatase inhibitors (Roche). Equal amounts of proteins (up to 25 μg) were separated on 4-12% NuPAGE gels in 1×MOPS or 1×MES buffer (Invitrogen) and transferred onto PVDF membranes (Millipore). The membrane was blocked with 5% dry milk in 1×TBS/0.1% Tween 20 (TBST) for at least 1 h at room temperature and incubated with human specific primary antibodies: FLT3, Phospho-FLT3, c-Myc (Cell Signaling Technologies), KRAS (Santa Cruz), or mouse anti-β-actin (SIGMA) overnight at 4° C. The membrane was washed 3 times in TBST and incubated with a horseradish peroxidase-conjugated secondary anti-rabbit or anti-mouse antibody (Cell Signaling Technologies) for 1 h at room temperature. Blots were again washed and the signal was detected with SuperSignal West Femto Chemiluminescent Substrate (Pierce) and exposed to HyBlot CL® autoradiography film (Denville).
(§2) To determine if the phosphorylation of FLT3, SRC kinase and downstream effectors or kinases (such as STAT3 [44], STAT5 [45] and p-38 [46]) could be affected by the compounds. […] The level of SRC kinase increased over time (amount at the 48 h time point is greater than at the 6 and 24 h time points). Unfortunately the bands for the phosphorylated SRC kinase are blurred despite repeated attempts to get clearer bands. […] From the above Western analyses, it is confirmed that the proliferation inhibition of MV4-11 is due to the inhibition of FLT3 signaling axis.

STAT5 phosphorylation = assay: Western blot in MV4-11; type: cell-based, human
Procedure: as §1, §2

p-38 phosphorylation = assay: Western blot in MV4-11; type: cell-based, human
Procedure: as §1, §2

THP1 = assay: Selectivity, proliferation IC50; type: cell-based; details: Homo sapiens, THP-1; read-out: IC50 THP1 (non-FLT3-driven AML line)
Procedure: (§3) Cell lines were seeded into 96-well plates the afternoon prior to treatment. Approximately 18 hours later, compounds were diluted in dimethyl sulfoxide (DMSO) and added to cells. Plates were incubated for 72 hours and cells viability determined with CellTiter-Blue Cell Viability Assay (Promega, Madison, WI). Plates were read after 4 additional hours of incubation at 37° C. using plate reader (Bio-Tek, Winooski. VT). Data was analyzed and graphed using GraphPad Prism Software (Graphpad. La Jolla, CA).

HL60 = assay: Selectivity, proliferation IC50; type: cell-based; details: Homo sapiens, HL-60; read-out: IC50 HL60 (acute promyelocytic leukemia)
Procedure: as §3

Kasumi-1 = assay: Selectivity, proliferation IC50; type: cell-based; details: Homo sapiens, read-out: IC50 Kasumi-1 (non-FLT3 AML line)
Procedure: as §3

MV4-11 [2] = assay: In vivo efficacy, NSG mice injected with MV4-11; details: 25 mg/kg, three times per week, NSG mice with MV4-11
Procedure: Method: Six week old female NSG mice were injected intravenously with 1×10^6 logarithmically growing MV4-11 cells expressing luciferase (MV4-11). Luciferase expressing leukemia cells were imaged using the IVIS Xenogen system (Perkin Elmer, Waltham MA). On day of imaging, mice are injected IP with 150 mg/kg luciferin (Perkin Elmer, Waltham, MA), anaesthetized and then placed in imaging chamber. Maximal luminescence is recorded and then averaged among each treatment group. Ten days post cell injection, mice were imaged and then sorted into groups so that leukemic burden was similar and dosing started. Mice were dosed either with vehicle (10% DMSO/10% Tween 20/80% saline) or 25 mg/kg of compounds three times per week for the duration of the experiment. Mice were weighed and observed five days per week and imaged once per week.

MRC5 = assay: Selectivity, proliferation IC50 (normal cell line); type: cell-based; details: Homo sapiens, read-out: IC50 MRC5 (normal lung fibroblast)
Procedure: as §3

[3] = Liver microsomal stability assay; type: in vitro ADME, mouse; details: compared to the other analogs
MV4-11 [4] = assay: Proliferation inhibition screen at 100 nM; type: cell-based; details: 100 nM compound, FIG. 10
Procedure: To determine inhibition at 100 nM or […], 96-well plates were seeded the afternoon before treatment. Plates were then treated with compound diluted in dimethyl sulfoxide (DMSO) as well as a DMSO control the following day for 72 hours. After this time the plates were then treated with 10 μL of CellTiter-Blue Cell Viability Assay (Promega, Madison, WI) for 4 hours. Then the plates were read on a plate reader (Bio-Tek, Winooski, VT). Data was analyzed on Excel as a percent of the DMSO vehicle.
From these cell proliferation studies, MV4-11 appeared to be more sensitive to the compounds than the other cell lines (Table 6A). […] To identify group of compounds potently inhibiting cancer cell proliferation, a lower concentration of compounds (100 nM) were used to screen against MV4-11 (FIG. 10). From these experiments, potent amide compounds A7, A10, A15, A16, A18, A20, B15 and D30 (as indicated by ***, FIG. 10) were selected. […] Typically amides that contain basic amines are included in compound libraries to improve aqueous solubility but it appears that the presence of a basic amine in the side chain of the compounds also facilitated the actual inhibition of MV4-11 proliferation.

FLT3 ITD = FLT3 ITD (Homo sapiens, UniProt P36888)
FLT3 ITD, sequence (P36888 whole entry, looked up, change not shown): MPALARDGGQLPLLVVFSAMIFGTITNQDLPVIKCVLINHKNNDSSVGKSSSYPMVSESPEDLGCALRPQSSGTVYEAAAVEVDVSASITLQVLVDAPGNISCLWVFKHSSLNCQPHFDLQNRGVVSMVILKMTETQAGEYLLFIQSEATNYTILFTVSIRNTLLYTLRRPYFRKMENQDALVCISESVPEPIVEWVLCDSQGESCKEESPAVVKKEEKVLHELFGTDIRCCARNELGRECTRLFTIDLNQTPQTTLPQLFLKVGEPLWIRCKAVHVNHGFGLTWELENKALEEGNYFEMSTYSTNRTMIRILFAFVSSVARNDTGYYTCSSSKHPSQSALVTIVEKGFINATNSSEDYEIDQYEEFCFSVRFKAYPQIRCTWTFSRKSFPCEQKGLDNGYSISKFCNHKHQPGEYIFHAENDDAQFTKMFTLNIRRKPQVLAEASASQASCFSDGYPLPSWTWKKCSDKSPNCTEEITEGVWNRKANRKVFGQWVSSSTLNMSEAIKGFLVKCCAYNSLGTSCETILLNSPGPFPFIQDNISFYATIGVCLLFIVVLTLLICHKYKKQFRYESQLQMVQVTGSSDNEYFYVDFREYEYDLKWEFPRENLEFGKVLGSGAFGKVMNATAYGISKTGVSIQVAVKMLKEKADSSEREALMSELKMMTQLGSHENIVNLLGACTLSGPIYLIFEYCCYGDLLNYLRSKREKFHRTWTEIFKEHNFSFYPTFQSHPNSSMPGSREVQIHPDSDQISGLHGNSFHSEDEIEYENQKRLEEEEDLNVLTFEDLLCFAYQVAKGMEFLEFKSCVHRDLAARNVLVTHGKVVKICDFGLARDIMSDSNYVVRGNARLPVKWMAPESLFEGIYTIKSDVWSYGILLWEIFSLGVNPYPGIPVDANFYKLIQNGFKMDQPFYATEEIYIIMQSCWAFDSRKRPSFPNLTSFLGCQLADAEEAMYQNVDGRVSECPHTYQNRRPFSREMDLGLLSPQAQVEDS

IC50 (MV4-11 [1]; 72 h, read-out: IC50 against MV4-11/uM): 0.003 µM
IC50 (MV4-11 [1]; FIG. 1, read-out: anticancer activities (IC50) against MV4-11): 0.003 µM
IC50 (MV4-11 [1]; Table 2, read-out: IC50 (nM) against MV4-11 (AML cell line)): 0.0055 ± 0.0013 µM
Structure (SMILES): CN(C)CC(O)CNC(=O)c1ccc(C#Cc2c(N)ncc3ccc(Cl)cc23)cc1 (centres unmarked) [HSM1702]

Structure (SMILES): Cc1ccc(C(=O)Nc2ccc(CN3CCN(C)CC3)c(C(F)(F)F)c2)cc1C#Cc1c(N)ncc2ccc(Cl)cc12 [HSN286]
STAT3 phosphorylation (Western) (STAT3 phosphorylation): inhibited
STAT5 phosphorylation (Western) (STAT5 phosphorylation): inhibited
p-38 phosphorylation (Western) (p-38 phosphorylation): inhibited
IC50 (THP1): 2.31 µM
IC50 (HL60): 2.16 µM
IC50 (Kasumi-1): > 10 µM
in-vivo efficacy (survival) (MV4-11 [2]): not efficacious
IC50 (MRC5): 1.27 µM
stability in mouse liver microsomes [3]: preformed much better
inhibition of MV4-11 proliferation in words (MV4-11 [4]): potent

Structure (SMILES): Cc1ccc(C(=O)Nc2ccc(CN3CCN(C)CC3)c(C(F)(F)F)c2)cc1C#Cc1cnc(N)c2ncccc12 [HSN356, 3-((8-amino-1,7-naphthyridin-5-yl)ethynyl)-4-methyl-N-(4-((4-methylpiperazin-1-yl)methyl)-3-(trifluoromethyl)phenyl)benzamide]
IC50 FLT3 ITD enzymatic inhibition (FLT3 ITD): single digit
